Source: patent US20100311714A1, “1H-IMIDAZO[4,5-c]QUINOLINONE COMPOUNDS” (priority 2009, published 2010)
Read-outs that look alike come from different tables or passages of the source.

Key:
[1] = test system: S6 Ribosomal Protein phosphorylation Ser235/236 in TSC1 null mouse embryo fibroblast (MEF) cells; assay: Reverse protein array, S6 Ribosomal Protein phosphorylation in TSC1 null MEF cells; format: cell-based; details: 1 h, TSC1-/- MEFs, 60 minutes
How it was run: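 Phospho-S6 (Ser235/236) was quantified by reverse protein array of cell lysates with a phospho-specific primary antibody. […]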

[2] = test system: PKB Ser473 phosphorylation in Rat1-myr-HA-p110 delta cells; assay: Reverse protein array, PKB Ser473 phosphorylation in Rat1-myr-HA-p110 delta cells; format: cell-based; details: Rattus norvegicus, 0.5 h, 30 minutes compound incubation, read-out: p-PKB/IC50_delta

| Compound | IC50 ([1]; read-out: p-S6 IC50) | IC50 [2] | IC50 ([1]; read-out: p-S6) |
| --- | --- | --- | --- |
| CCOc1ccc(-c2ccc3ncc4c(c3c2)n(-c2ccc(N(C)C)nc2C)c(=O)n4C)cn1 [Example 19.3, 1-(6-Dimethylamino-2-methyl-pyridin-3-yl)-8-(6-ethoxy-pyridin-3-yl)-3-methyl-1,3-dihydro-imidazo[4,5-c]quinolin-2-one] | 2 nM | 74.7 nM | – |
| Cc1nc(N2CC(F)(F)C2)ccc1-n1c(=O)n(C)c2cnc3ccc(-c4cncc(C(C)(C)O)c4)cc3c21 [Example 24.2, 1-[6-(3,3-Difluoro-azetidin-1-yl)-2-methyl-pyridin-3-yl]-8-[5-(1-hydroxy-1-methyl-ethyl)-pyridin-3-yl]-3-methyl-1,3-dihydro-imidazo[4,5-c]quinolin-2-one] | 1 nM | 30 nM | – |
| Cc1nc(N2CCC(O)C2)ccc1-n1c(=O)n(C)c2cnc3ccc(-c4cncc(OC(C)C)c4)cc3c21 (stereo not drawn) [Example 27.1, 1-[6-(3-Hydroxy-pyrrolidin-1-yl)-2-methyl-pyridin-3-yl]-8-(5-isopropoxy-pyridin-3-yl)-3-methyl-1,3-dihydro-imidazo[4,5-c]quinolin-2-one] | 2 nM | 64.5 nM | – |
| Cc1cc(F)ncc1-n1c(=O)n(C)c2cnc3ccc(-c4cnc(N)c(C(F)(F)F)c4)cc3c21 [Example 16.1, 8-(6-Amino-5-trifluoromethyl-pyridin-3-yl)-1-(6-fluoro-4-methyl-pyridin-3-yl)-3-methyl-1,3-dihydro-imidazo[4,5-c]quinolin-2-one] | < 0.457 nM | 42.9 nM | – |
| CNc1ccc(-c2ccc3ncc4c(c3c2)n(-c2ccc(OCCOC)nc2C)c(=O)n4C)cn1 [Example 13.3, 1-[6-(2-Methoxy-ethoxy)-2-methyl-pyridin-3-yl]-3-methyl-8-(6-methylamino-pyridin-3-yl)-1,3-dihydro-imidazo[4,5-c]quinolin-2-one] | 3 nM | 38.5 nM | – |
| CNc1cc(-c2ccc3ncc4c(c3c2)n(-c2ccc(N(C)C)nc2C)c(=O)n4C)cnc1C [Example 19.2, 1-(6-Dimethylamino-2-methyl-pyridin-3-yl)-3-methyl-8-(6-methyl-5-methylamino-pyridin-3-yl)-1,3-dihydro-imidazo[4,5-c]quinolin-2-one] | 1.1 nM | < 4.57 nM | – |
| COc1ncccc1-n1c(=O)n(C)c2cnc3ccc(-c4cnc5c(ccn5C)c4)cc3c21 [Example 1.7, 1-(2-Methoxy-pyridin-3-yl)-3-methyl-8-(1-methyl-1H-pyrrolo[2,3-b]pyridin-5-yl)-1,3-dihydro-imidazo[4,5-c]quinolin-2-one] | – | 72 nM | 12.1 nM |
| COCCOc1ccc(-n2c(=O)n(C)c3cnc4ccc(-c5cnc(N)c(C(F)(F)F)c5)cc4c32)c(C)n1 [Example 13.2, 8-(6-Amino-5-trifluoromethyl-pyridin-3-yl)-1-[6-(2-methoxy-ethoxy)-2-methyl-pyridin-3-yl]-3-methyl-1,3-dihydro-imidazo[4,5-c]quinolin-2-one] | 1 nM | 29.4 nM | – |
| CNc1ccc(-c2ccc3ncc4c(c3c2)n(-c2ccc(N3CCCC3)nc2C)c(=O)n4C)cn1 [Example 25.1, 3-Methyl-8-(6-methylamino-pyridin-3-yl)-1-(2-methyl-6-pyrrolidin-1-yl-pyridin-3-yl)-1,3-dihydro-imidazo[4,5-c]quinolin-2-one] | 1 nM | 26 nM | – |
| COCCOc1ccc(-n2c(=O)n(C)c3cnc4ccc(-c5cnc(COC)c(OC)c5)cc4c32)c(C)n1 [Example 22.3, 1-[6-(2-Methoxy-ethoxy)-2-methyl-pyridin-3-yl]-8-(5-methoxy-6-methoxymethyl-pyridin-3-yl)-3-methyl-1,3-dihydro-imidazo[4,5-c]quinolin-2-one] | 15 nM | 210 nM | – |
| COc1nc(N2CCNCC2)ccc1-n1c(=O)n(C)c2cnc3ccc(-c4cnc(N(C)C)nc4)cc3c21 [Example 9.4, 8-(2-Dimethylamino-pyrimidin-5-yl)-1-(2-methoxy-6-piperazin-1-yl-pyridin-3-yl)-3-methyl-1,3-dihydro-imidazo[4,5-c]quinolin-2-one] | 6 nM | 40.2 nM | – |
| CCNc1cc(-c2ccc3ncc4c(c3c2)n(-c2cnc(F)cc2C)c(=O)n4C)cnc1C [Example 16.2, 8-(5-Ethylamino-6-methyl-pyridin-3-yl)-1-(6-fluoro-4-methyl-pyridin-3-yl)-3-methyl-1,3-dihydro-imidazo[4,5-c]quinolin-2-one] | 6 nM | 63.3 nM | – |
| COCCN(C)c1ccc(-n2c(=O)n(C)c3cnc4ccc(-c5cncc(N)c5)cc4c32)c(C)n1 [Example 15.8, 8-(5-Amino-pyridin-3-yl)-1-{6-[(2-methoxy-ethyl)-methyl-amino]-2-methyl-pyridin-3-yl}-3-methyl-1,3-dihydro-imidazo[4,5-c]quinolin-2-one] | 6 nM | 59.7 nM | – |
| CCOc1ccc(-c2ccc3ncc4c(c3c2)n(-c2cccnc2C)c(=O)n4C)cn1 [Example 2.1, 8-(6-Ethoxy-pyridin-3-yl)-3-methyl-1-(2-methyl-pyridin-3-yl)-1,3-dihydro-imidazo[4,5-c]quinolin-2-one] | – | 96 nM | 19 nM |
| CCOc1ccc(-c2ccc3ncc4c(c3c2)n(-c2ccc(OCCOC)nc2C)c(=O)n4C)cn1 [Example 13.1, 8-(6-Ethoxy-pyridin-3-yl)-1-[6-(2-methoxy-ethoxy)-2-methyl-pyridin-3-yl]-3-methyl-1,3-dihydro-imidazo[4,5-c]quinolin-2-one] | 18 nM | 113 nM | – |
| CCOc1ccc(-c2ccc3ncc4c(c3c2)n(-c2ccc(C)nc2C)c(=O)n4C)cn1 [Example 14.2, 1-(2,6-Dimethyl-pyridin-3-yl)-8-(6-ethoxy-pyridin-3-yl)-3-methyl-1,3-dihydro-imidazo[4,5-c]quinolin-2-one] | 16 nM | 68.1 nM | – |
| CCOCc1cc(-c2ccc3ncc4c(c3c2)n(-c2ccc(F)nc2C)c(=O)n4C)cnc1N [Example 7.15, 8-(6-Amino-5-ethoxymethyl-pyridin-3-yl)-1-(6-fluoro-2-methyl-pyridin-3-yl)-3-methyl-1,3-dihydro-imidazo[4,5-c]quinolin-2-one] | 8 nM | 172 nM | – |
| CCOc1ccc(-c2ccc3ncc4c(c3c2)n(-c2ccc(NC(=O)COC)nc2C)c(=O)n4C)cn1 [Example 20.2, N-{5-[8-(6-Ethoxy-pyridin-3-yl)-3-methyl-2-oxo-2,3-dihydro-imidazo[4,5-c]quinolin-1-yl]-6-methyl-pyridin-2-yl}-2-methoxy-acetamide] | 131 nM | 326 nM | – |
| CNc1ccc(-c2ccc3ncc4c(c3c2)n(-c2cccnc2OC)c(=O)n4C)cn1 [Example 1.4, 1-(2-Methoxy-pyridin-3-yl)-3-methyl-8-(6-methylamino-pyridin-3-yl)-1,3-dihydro-imidazo[4,5-c]quinolin-2-one] | – | 29.4 nM | 8.24 nM |
| CCNc1cc(-c2ccc3ncc4c(c3c2)n(-c2ccc(C)nc2C)c(=O)n4C)cnc1C [Example 14.6, 1-(2,6-Dimethyl-pyridin-3-yl)-8-(5-ethylamino-6-methyl-pyridin-3-yl)-3-methyl-1,3-dihydro-imidazo[4,5-c]quinolin-2-one] | 2 nM | < 4.57 nM | – |
| CNc1ncc(-c2ccc3ncc4c(c3c2)n(-c2cnc(F)cc2C)c(=O)n4C)cn1 [Example 16.3, 1-(6-Fluoro-4-methyl-pyridin-3-yl)-3-methyl-8-(2-methylamino-pyrimidin-5-yl)-1,3-dihydro-imidazo[4,5-c]quinolin-2-one] | 22 nM | 304 nM | – |
| COCCN(C)c1ccc(-n2c(=O)n(C)c3cnc4ccc(-c5cnc6c(ccn6C)c5)cc4c32)c(C)n1 [Example 15.7, 1-{6-[(2-Methoxy-ethyl)-methyl-amino]-2-methyl-pyridin-3-yl}-3-methyl-8-(1-methyl-1H-pyrrolo[2,3-b]pyridin-5-yl)-1,3-dihydro-imidazo[4,5-c]quinolin-2-one] | 2 nM | 44.3 nM | – |
| Cc1nc(N2CC(F)(F)C(F)(F)C2)ccc1-n1c(=O)n(C)c2cnc3ccc(-c4cncc(C(C)(C)O)c4)cc3c21 [Example 35.1, 8-[5-(1-Hydroxy-1-methyl-ethyl)-pyridin-3-yl]-3-methyl-1-[2-methyl-6-(3,3,4,4-tetrafluoro-pyrrolidin-1-yl)-pyridin-3-yl]-1,3-dihydro-imidazo[4,5-c]quinolin-2-one] | 0.79 nM | 25.5 nM | – |
| CCOc1ccc(-c2ccc3ncc4c(c3c2)n(-c2cncc(C)c2)c(=O)n4C)cn1 [Example 17.1, 8-(6-Ethoxy-pyridin-3-yl)-3-methyl-1-(5-methyl-pyridin-3-yl)-1,3-dihydro-imidazo[4,5-c]quinolin-2-one] | 29 nM | 412 nM | – |
| COCCN(C)c1ccc(-n2c(=O)n(C)c3cnc4ccc(-c5cnc(N)c(C(F)(F)F)c5)cc4c32)c(C)n1 [Example 15.1, 8-(6-Amino-5-trifluoromethyl-pyridin-3-yl)-1-{6-[(2-methoxy-ethyl)-methyl-amino]-2-methyl-pyridin-3-yl}-3-methyl-1,3-dihydro-imidazo[4,5-c]quinolin-2-one] | 1 nM | 13.3 nM | – |
| CNc1ncc(-c2ccc3ncc4c(c3c2)n(-c2ccc(C)nc2C)c(=O)n4C)cn1 [Example 14.4, 1-(2,6-Dimethyl-pyridin-3-yl)-3-methyl-8-(2-methylamino-pyrimidin-5-yl)-1,3-dihydro-imidazo[4,5-c]quinolin-2-one] | 7 nM | 32.6 nM | – |
| COc1ccc(-n2c(=O)n(C)c3cnc4ccc(-c5cnc(N(C)C)nc5)cc4c32)c(Cl)n1 [Example 18.3, 1-(2-Chloro-6-methoxy-pyridin-3-yl)-8-(2-dimethylamino-pyrimidin-5-yl)-3-methyl-1,3-dihydro-imidazo[4,5-c]quinolin-2-one] | 4.3 nM | 90.7 nM | – |
